Data reported in ChEMBL document CHEMBL5291721, “A preclinical secondary pharmacology resource illuminates target-adverse drug reaction associations of marketed drugs” (Nat Commun, 2023).

Tests used:
Adenosine receptor A2a = Adenosine receptor A2a (Homo sapiens, UniProt P29274)
Adenosine receptor A3 = biological target: T1, Adenosine receptor A3 (Homo sapiens, UniProt P0DMS8)
T1 sequence (P0DMS8 whole entry): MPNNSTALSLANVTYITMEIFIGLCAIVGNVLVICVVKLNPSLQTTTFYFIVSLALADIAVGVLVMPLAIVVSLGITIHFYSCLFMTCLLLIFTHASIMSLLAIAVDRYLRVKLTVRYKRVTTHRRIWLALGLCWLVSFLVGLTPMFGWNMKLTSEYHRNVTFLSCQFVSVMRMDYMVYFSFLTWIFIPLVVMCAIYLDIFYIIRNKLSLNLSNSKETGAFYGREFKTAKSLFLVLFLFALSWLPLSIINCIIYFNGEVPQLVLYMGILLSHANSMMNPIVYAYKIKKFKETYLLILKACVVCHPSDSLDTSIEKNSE

[1] = biological target: T2, Alpha-2C adrenergic receptor (Homo sapiens, UniProt P18825); format: functional
T2 sequence (P18825 whole entry): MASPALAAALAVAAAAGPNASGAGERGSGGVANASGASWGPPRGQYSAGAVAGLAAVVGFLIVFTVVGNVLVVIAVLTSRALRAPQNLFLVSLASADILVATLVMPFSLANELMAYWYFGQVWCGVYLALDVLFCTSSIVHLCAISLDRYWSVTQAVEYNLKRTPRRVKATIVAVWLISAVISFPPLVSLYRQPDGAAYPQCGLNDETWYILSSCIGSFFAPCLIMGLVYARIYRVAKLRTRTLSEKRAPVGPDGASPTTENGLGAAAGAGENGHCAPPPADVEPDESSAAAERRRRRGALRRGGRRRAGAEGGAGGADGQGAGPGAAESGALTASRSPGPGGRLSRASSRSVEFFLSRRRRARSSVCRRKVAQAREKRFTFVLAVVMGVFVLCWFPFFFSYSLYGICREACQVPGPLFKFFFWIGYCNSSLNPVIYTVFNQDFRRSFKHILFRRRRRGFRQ

[2] = biological target: T3, Type-1 angiotensin II receptor (Homo sapiens, UniProt P30556)
T3 sequence (P30556 whole entry): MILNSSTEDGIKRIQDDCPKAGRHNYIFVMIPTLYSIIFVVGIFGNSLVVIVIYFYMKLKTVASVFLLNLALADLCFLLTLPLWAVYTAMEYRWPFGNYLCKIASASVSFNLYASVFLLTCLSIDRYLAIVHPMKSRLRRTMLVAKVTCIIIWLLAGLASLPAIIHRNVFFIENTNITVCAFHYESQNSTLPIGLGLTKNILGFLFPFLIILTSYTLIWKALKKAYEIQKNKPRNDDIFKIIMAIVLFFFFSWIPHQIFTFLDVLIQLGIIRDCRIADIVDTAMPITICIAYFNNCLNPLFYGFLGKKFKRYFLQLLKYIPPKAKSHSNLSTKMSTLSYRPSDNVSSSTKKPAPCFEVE

[3] = biological target: Neuronal acetylcholine receptor subunit alpha-4 (Homo sapiens, UniProt P43681)
[4] = biological target: Growth hormone secretagogue receptor type 1 (Homo sapiens, UniProt Q92847)
Histamine H2 receptor = Histamine H2 receptor (Homo sapiens, UniProt P25021); format: functional, cell-based
[5] = biological target: T4, 5-hydroxytryptamine receptor 3A (Homo sapiens, UniProt P46098); format: functional
T4 sequence (P46098 whole entry): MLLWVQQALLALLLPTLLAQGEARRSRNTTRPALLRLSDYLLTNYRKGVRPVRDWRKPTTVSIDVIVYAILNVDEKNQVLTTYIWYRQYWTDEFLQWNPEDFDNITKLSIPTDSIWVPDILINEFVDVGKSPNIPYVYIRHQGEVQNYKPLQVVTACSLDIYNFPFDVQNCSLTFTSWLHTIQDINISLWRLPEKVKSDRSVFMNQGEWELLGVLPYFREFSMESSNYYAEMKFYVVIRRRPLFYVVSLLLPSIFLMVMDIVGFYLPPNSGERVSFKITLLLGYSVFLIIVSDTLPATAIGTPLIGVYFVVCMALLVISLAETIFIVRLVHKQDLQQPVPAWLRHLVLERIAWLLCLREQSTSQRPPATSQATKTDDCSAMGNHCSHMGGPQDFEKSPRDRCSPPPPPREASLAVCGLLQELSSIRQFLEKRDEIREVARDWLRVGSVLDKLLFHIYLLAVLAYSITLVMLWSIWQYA

Motilin receptor = Motilin receptor (Homo sapiens, UniProt O43193)
[6] = biological target: T5, Neuropeptide Y receptor type 1 (Homo sapiens, UniProt P25929); conditions: read-out: AC50
T5 sequence (P25929 whole entry): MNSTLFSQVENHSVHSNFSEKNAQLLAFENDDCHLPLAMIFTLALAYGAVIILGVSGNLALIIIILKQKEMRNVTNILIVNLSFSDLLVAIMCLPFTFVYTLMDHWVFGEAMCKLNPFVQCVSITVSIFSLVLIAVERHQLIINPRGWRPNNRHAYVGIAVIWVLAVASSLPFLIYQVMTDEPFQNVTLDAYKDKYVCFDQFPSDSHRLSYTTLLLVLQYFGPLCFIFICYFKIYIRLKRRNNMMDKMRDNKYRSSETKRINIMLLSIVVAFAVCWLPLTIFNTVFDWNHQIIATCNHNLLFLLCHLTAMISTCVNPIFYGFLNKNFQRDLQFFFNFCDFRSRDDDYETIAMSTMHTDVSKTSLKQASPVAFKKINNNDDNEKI

[7] = biological target: 3',5'-cyclic-AMP phosphodiesterase 4D (Homo sapiens, UniProt Q08499); format: functional
Thromboxane A2 receptor = biological target: T6, Thromboxane A2 receptor (Homo sapiens, UniProt P21731)
T6 sequence (P21731 whole entry): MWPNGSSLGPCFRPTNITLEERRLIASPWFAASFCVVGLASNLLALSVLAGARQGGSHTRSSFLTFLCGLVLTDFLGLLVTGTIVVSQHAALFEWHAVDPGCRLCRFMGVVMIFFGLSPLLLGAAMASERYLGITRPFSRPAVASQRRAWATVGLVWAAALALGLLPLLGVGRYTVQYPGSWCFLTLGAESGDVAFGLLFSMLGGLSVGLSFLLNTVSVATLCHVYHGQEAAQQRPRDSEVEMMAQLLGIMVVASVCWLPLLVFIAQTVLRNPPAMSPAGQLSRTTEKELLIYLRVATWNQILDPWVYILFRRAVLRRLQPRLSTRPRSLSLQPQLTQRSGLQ

[8] = biological target: Sodium-dependent noradrenaline transporter (Homo sapiens, UniProt P23975)
Further: assay procedure not described here.

Chain of Motilin receptor (O43193 whole entry): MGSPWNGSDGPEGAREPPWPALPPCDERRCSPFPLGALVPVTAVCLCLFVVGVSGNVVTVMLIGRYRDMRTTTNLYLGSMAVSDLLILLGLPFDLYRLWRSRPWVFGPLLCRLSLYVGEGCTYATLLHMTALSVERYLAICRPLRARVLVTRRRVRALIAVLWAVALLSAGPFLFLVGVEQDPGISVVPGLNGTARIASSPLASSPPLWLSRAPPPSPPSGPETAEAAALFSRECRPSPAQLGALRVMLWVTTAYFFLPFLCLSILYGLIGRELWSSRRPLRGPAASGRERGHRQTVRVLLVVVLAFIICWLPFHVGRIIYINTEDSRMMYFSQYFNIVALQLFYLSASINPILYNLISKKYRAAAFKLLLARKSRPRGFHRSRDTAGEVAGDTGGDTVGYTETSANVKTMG
Chain of Histamine H2 receptor (P25021 whole entry): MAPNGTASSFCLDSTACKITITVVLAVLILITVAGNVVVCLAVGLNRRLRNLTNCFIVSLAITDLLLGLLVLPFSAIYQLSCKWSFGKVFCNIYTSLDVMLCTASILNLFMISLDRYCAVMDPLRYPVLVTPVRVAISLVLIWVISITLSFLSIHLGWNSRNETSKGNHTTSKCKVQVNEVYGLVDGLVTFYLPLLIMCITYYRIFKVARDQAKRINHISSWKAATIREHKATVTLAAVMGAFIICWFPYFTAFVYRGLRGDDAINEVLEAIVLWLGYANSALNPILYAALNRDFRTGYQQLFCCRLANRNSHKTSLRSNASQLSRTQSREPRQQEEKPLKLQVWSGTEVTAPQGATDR
Chain of 3',5'-cyclic-AMP phosphodiesterase 4D (Q08499 whole entry): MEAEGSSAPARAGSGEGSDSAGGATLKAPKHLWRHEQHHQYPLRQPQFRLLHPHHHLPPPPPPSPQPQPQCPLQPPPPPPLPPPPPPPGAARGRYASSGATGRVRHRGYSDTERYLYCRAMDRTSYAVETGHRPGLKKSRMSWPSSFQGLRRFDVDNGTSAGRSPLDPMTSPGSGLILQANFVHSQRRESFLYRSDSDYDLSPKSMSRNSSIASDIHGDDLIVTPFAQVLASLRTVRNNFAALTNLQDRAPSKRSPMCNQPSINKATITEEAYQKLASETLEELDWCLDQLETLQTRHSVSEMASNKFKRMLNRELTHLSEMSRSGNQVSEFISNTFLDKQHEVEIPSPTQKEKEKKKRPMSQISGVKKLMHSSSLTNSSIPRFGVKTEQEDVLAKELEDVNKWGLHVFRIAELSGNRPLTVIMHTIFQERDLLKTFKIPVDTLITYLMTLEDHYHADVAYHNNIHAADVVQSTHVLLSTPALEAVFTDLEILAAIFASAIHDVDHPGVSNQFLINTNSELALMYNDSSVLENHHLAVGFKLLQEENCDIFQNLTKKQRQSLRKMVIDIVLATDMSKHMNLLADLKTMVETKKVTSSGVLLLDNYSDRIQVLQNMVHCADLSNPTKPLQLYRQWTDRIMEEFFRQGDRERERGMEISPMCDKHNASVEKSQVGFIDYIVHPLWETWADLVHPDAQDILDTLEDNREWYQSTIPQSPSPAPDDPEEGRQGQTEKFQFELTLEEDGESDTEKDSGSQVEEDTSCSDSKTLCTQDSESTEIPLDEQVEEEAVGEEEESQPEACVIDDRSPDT
Chain of Sodium-dependent noradrenaline transporter (P23975 whole entry): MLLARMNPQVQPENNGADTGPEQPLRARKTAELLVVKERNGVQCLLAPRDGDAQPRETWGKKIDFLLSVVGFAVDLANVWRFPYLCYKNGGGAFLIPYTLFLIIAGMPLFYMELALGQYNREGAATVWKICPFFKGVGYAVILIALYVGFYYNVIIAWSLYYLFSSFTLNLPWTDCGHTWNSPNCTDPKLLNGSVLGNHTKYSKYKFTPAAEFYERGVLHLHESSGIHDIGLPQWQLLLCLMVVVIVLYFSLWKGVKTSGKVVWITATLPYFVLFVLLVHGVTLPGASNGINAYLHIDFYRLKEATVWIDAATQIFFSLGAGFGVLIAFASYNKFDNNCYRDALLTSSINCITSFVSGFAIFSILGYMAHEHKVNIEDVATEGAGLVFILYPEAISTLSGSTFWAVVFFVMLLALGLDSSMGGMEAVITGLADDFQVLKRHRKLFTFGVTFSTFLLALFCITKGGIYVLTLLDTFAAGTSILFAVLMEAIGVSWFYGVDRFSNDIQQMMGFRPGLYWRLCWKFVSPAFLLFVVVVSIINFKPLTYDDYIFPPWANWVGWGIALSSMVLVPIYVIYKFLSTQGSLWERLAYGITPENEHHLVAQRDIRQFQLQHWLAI
Chain of Adenosine receptor A2a (P29274 whole entry): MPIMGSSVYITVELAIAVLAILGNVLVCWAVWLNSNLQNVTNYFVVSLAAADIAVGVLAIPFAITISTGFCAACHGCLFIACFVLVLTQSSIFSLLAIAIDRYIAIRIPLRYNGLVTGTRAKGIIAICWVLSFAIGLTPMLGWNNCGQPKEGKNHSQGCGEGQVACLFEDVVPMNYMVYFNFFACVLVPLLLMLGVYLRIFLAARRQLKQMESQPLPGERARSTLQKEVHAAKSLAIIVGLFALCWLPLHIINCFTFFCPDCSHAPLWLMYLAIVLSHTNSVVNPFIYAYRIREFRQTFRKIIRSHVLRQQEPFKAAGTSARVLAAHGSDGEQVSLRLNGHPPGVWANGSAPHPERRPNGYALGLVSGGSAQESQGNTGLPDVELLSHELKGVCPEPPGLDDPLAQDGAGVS
Chain of Growth hormone secretagogue receptor type 1 (Q92847 whole entry): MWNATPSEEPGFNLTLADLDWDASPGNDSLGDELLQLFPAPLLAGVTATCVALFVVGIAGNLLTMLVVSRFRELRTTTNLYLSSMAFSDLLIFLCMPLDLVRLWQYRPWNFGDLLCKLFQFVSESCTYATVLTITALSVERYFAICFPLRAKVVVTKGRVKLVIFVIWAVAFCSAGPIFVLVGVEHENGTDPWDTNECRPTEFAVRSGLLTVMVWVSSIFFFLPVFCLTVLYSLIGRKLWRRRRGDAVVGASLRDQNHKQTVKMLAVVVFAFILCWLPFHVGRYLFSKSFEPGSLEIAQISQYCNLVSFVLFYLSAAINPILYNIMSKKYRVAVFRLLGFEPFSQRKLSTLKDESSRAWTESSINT
Chain of Neuronal acetylcholine receptor subunit alpha-4 (P43681 whole entry): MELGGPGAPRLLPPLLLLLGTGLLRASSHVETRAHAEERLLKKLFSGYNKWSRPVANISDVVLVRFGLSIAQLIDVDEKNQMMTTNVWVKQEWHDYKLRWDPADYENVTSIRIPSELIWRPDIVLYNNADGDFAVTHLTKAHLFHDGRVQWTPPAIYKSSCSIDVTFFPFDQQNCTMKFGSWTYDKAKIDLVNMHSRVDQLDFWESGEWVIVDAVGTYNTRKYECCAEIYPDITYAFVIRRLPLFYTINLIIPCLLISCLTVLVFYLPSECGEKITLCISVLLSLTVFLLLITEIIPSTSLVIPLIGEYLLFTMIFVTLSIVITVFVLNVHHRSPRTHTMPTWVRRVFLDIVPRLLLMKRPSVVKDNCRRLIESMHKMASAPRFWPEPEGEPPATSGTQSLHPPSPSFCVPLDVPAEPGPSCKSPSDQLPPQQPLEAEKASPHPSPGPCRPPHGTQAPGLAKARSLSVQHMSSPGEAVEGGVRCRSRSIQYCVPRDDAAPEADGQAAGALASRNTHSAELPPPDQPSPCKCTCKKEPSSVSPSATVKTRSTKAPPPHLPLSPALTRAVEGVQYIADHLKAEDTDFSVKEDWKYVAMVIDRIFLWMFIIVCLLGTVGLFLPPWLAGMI

Row | Structure (SMILES) | AC50 (Adenosine receptor A2a) [µM] | AC50 (Adenosine receptor A3) [µM] | AC50 [1] [µM] | AC50 [2] [µM] | AC50 [3] [µM] | AC50 [4] [µM] | AC50 (Histamine H2 receptor) [µM] | AC50 [5] [µM] | AC50 (Motilin receptor) [µM] | AC50 [6] [µM] | AC50 [7] [µM] | AC50 (Thromboxane A2 receptor) [µM] | AC50 [8] [µM]
1 | Nc1ncn([C@H]2C[C@H](O)[C@@H](CO)O2)c(=O)n1 [DECITABINE] | > 30 | > 30 | > 30 | > 30 | > 30 | > 30 | > 30 | > 30 | > 30 | > 30 | > 30 | > 30 | > 30
2 | CCCN[C@H]1CCc2nc(N)sc2C1 [PRAMIPEXOLE] | > 30 | > 30 | > 10 | > 30 | > 10 | > 30 | 0.73 | > 30 | > 10 | > 30 | > 30 | > 30 | > 30
3 | CCC(=O)O[C@]1(C(=O)SCF)[C@H](C)C[C@H]2[C@@H]3C[C@H](F)C4=CC(=O)C=C[C@]4(C)[C@@]3(F)[C@@H](O)C[C@@]21C [FLUTICASONE PROPIONATE] | > 30 | > 30 | > 30 | > 30 | > 30 | > 30 | > 10 | > 30 | > 30 | > 30 | > 30 | > 30 | > 30

Continued, values first:

Row | AC50 (Adenosine receptor A2a) [µM] | AC50 (Adenosine receptor A3) [µM] | AC50 [1] [µM] | AC50 [2] [µM] | AC50 [3] [µM] | AC50 [4] [µM] | AC50 (Histamine H2 receptor) [µM] | AC50 [5] [µM] | AC50 (Motilin receptor) [µM] | AC50 [6] [µM] | AC50 [7] [µM] | AC50 (Thromboxane A2 receptor) [µM] | AC50 [8] [µM] | Structure (SMILES)
4 | > 30 | > 30 | > 30 | > 30 | > 30 | > 30 | > 30 | > 30 | > 30 | > 30 | > 30 | > 30 | > 30 | CC1(C)S[C@@H]2[C@H](NC(=O)[C@H](N)c3ccccc3)C(=O)N2[C@H]1C(=O)OCOC(=O)[C@@H]1N2C(=O)C[C@H]2S(=O)(=O)C1(C)C [SULTAMICILLIN]
5 | > 30 | > 30 | > 30 | > 30 | > 10 | > 30 | > 30 | > 30 | > 10 | > 30 | > 30 | > 30 | 18.3 | [H]/N=C(/N)N/C(=N/[H])NCCc1ccccc1 [PHENFORMIN]
6 | > 30 | > 30 | 1.1 | > 30 | > 30 | > 30 | > 30 | > 30 | > 30 | > 30 | 8.8 | > 30 | > 30 | CCOC(=O)C1=C[C@]2(CC)CCCN3CCc4c(n1c1ccccc41)[C@@H]32 [VINPOCETINE]
7 | > 30 | > 30 | > 10 | > 30 | > 10 | > 30 | > 10 | > 30 | > 10 | > 30 | > 30 | > 30 | > 30 | CC12CC3CC(C)(C1)CC(N)(C3)C2 [MEMANTINE]
